Assay results: publication PMC9959349, “Discovery of the 3-Amino-1,2,4-triazine-Based Library as Selective PDK1 Inhibitors with Therapeutic Potential in Highly Aggressive Pancreatic Ductal Adenocarcinoma” (International Journal of Molecular Sciences, 2023)

How the values were obtained:
[1] = tested on: PSN-1 cells; assay: TEM analysis of mitochondria; type: cell-based, human; conditions: 24 h, IC50 concentrations
Experimental: In addition, TEM analyses were performed on PSN-1 cancer cells after 24 h treatment with IC50 concentrations of the representative compounds 5i and 6h.
About 10^6 PSN-1 cancer cells were seeded in 24-well plates and, after 24 h incubation, were treated with IC50 concentrations of tested compounds and incubated for an additional 24 h. Cells were then washed with cold PBS, harvested, and directly fixed with 1.5% glutaraldehyde buffer with 0.2 M sodium cacodylate, pH 7.4. After washing with buffer and postfixation with 1% OsO4 in 0.2 M cacodylate buffer, specimens were dehydrated and embedded in epoxy resin (Epon Araldite). Sagittal serial sections (1 μm) were counterstained with toluidine blue; thin sections (90 nm) were given contrast by staining with uranyl acetate and lead citrate. Micrographs were taken with a Hitachi H-600 electron microscope (Hitachi, Tokyo, Japan) operating at 75 kV. All photos were typeset in Corel Draw 11.

[2] = tested on: caspase-3 and -8 in PSN-1 cells; assay: Caspase-3 and -8 activity; type: cell-based, human; conditions: 24 h, IC50 doses
Experimental: Apoptotic cell death can be triggered by a mitochondria-mediated or mitochondrial-independent pathways. In the […], caspase-8 and caspase-3 play an essential role. […] Staurosporine (STS), an alkaloid inducing apoptosis through caspase-3 and -8 activation was used as a positive control. […] Caspase-3 and -8 cleavage reached values similar to that induced by the well-known caspase-dependent apoptosis inducer staurosporine (Figure 10C).
Protein aliquots (100 μg) were stained at 37 °C for 60 min with fluorescent caspase-3 (N-acetyl-Asp-Glu-Val-Asp-AMC, AMC = 7-amino-4-methylcoumarin) or caspase-8 (Ac-Val-Glu-Thr-Asp-AMC) substrates. Substrate hydrolysis was measured after 60 min by monitoring the release of AMC using a a Tecan microplate reader (excitation at 370 nm, emission at 460 nm).

[3] = Body weight changes of LLC-bearing mice; type: in vivo; conditions: LLC-bearing C57BL mice, 5i 20 mg kg−1 daily i.p.
[4] = biological target: recombinant human HSP90 (Homo sapiens, UniProt P07900); assay: HSP90 inhibition assay (Transcreener ADP kit); type: biochemical; conditions: 1.5 µM compound (equivalent doses)
Experimental: The in vitro inhibitory activity of tested compounds on recombinant human HSP90 was assessed by The Transcreener™ ADP kit (Bellbrook Labs) according to the manufacturer’s protocol. Human recombinant HSP90 protein was incubated with tested compounds in the presence of 250 μM ATP at 37 °C for 30 min, 4°C for 30 min and ATPase activity was stopped via the addition of the stop and detect buffer. Following this, samples were incubated for 1 h at room temperature with the ADP2 Antibody and the ADP Alexa594 Tracer. The fluorescence intensity polarization of samples was measured with a Tecan plate reader (Tecan Infinite® M200). The evaluation was based on means from at least three independent experiments.

Cn1cc(-c2nnc(N)nc2-c2cn(C)c3ccc(F)cc23)c2ccccc21 [5i]
mitochondrial morphology (TEM) [1]: dramatic swelling of the mitochondria
caspase-3 and -8 activation [2]: significantly activated
body weight loss (in words) [3]: lower than that induced by cisplatin and gemcitabine
decrease of HSP90 catalytic activity [4]: 60–80%
